{
  "source": "ChEMBL document CHEMBL5120831",
  "about": "“Pep5-based antitumor peptides containing multifunctional fragments with enhanced activity and synergistic effect” (Eur J Med Chem, 2022)",
  "key": {"HepG2 [1]": {"system": "HepG2", "assay": "Cytotoxicity against human HepG2 cells assessed as reduction in cell viability measured after 24 hrs by CCK-8 assay", "format": "functional, cell-based", "settings": "for IC50: HepG2, 24 h"}, "[2]": {"assay": "Cytotoxicity against human L02 cells assessed as reduction in cell viability measured after 24 hrs by CCK-8 assay", "format": "toxicity, cell-based"}, "A549 [3]": {"system": "A549", "assay": "Cytotoxicity against human A549 cells assessed as reduction in cell viability measured after 24 hrs by CCK-8 assay", "format": "functional, cell-based", "settings": "for IC50: A549, 24 h"}, "[4]": {"assay": "Cytotoxicity against human BEAS-2B cells assessed as reduction in cell viability measured after 24 hrs by CCK-8 assay", "format": "toxicity, cell-based"}, "HepG2 [5]": {"system": "HepG2", "assay": "Induction of morphological changes in human HepG2 cells assessed as decrease in cell number at 15 uM measured after 24 hrs by high-throughput microscopy", "format": "functional, cell-based"}, "HepG2 [6]": {"system": "HepG2", "assay": "Induction of morphological changes in human HepG2 cells assessed as appearance of abnormal cell morphology at 15 uM measured after 24 hrs by high-throughput microscopy", "format": "functional, cell-based"}, "HepG2 [7]": {"system": "HepG2", "assay": "Induction of apoptosis in human HepG2 cells assessed as increase in late apoptotic cells at 15 uM measured after 24 hrs by Annexin V-FITC/propidium iodide staining based flow cytometry", "format": "functional, cell-based"}, "HepG2 [8]": {"system": "HepG2", "assay": "Induction of apoptosis in human HepG2 cells assessed as increase in necrotic cells at 15 uM measured after 24 hrs by Annexin V-FITC/propidium iodide staining based flow cytometry", "format": "functional, cell-based"}, "A549 [9]": {"system": "A549", "assay": "Induction of apoptosis in human A549 cells assessed as increase in late apoptotic cells at 15 uM measured after 24 hrs by Annexin V-FITC/propidium iodide staining based flow cytometry", "format": "functional, cell-based"}, "A549 [10]": {"system": "A549", "assay": "Induction of apoptosis in human A549 cells assessed as increase in necrotic cells at 15 uM measured after 24 hrs by Annexin V-FITC/propidium iodide staining based flow cytometry", "format": "functional, cell-based"}, "L02": {"system": "L02", "assay": "Induction of apoptosis in human L02 cells assessed as reduction in viable cells at 15 uM measured after 24 hrs by Annexin V-FITC/propidium iodide staining based flow cytometry", "format": "toxicity, cell-based", "settings": "l02, 24 h"}, "BEAS-2B": {"system": "BEAS-2B", "assay": "Induction of apoptosis in human BEAS-2B cells assessed as reduction in viable cells at 15 uM measured after 24 hrs by Annexin V-FITC/propidium iodide staining based flow cytometry", "format": "toxicity, cell-based"}, "A549 [11]": {"system": "A549", "assay": "Induction of cell membrane disruption in human A549 cells assessed as increase in LDH release at 15 uM measured after 1 hr by LDH releasing reagent based assay"}, "HepG2 [12]": {"system": "HepG2", "assay": "Induction of cell membrane disruption in human HepG2 cells assessed as increase in LDH release at 15 uM measured after 1 hr by LDH releasing reagent based assay"}, "HepG2 [13]": {"system": "HepG2", "assay": "Antitumor activity against human HepG2 cells xenografted in sc dosed BALB/c nude mouse assessed as tumor growth inhibition administered at 1 day interval for 9 days", "format": "functional, organism-based", "settings": "dose 25-50 µM, time 9.0 day, DDE = dose-dependent effect"}, "HepG2 [14]": {"system": "HepG2", "assay": "Antitumor activity against human HepG2 cells xenografted in BALB/c nude mouse assessed as reduction in tumor volume at 25 to 50 uM, sc administered at 1 day interval for 9 days", "format": "functional, organism-based", "settings": "dose 25-50 µM, time 9.0 day"}, "[15]": {"assay": "Toxicity in HepG2 cell xenografted BALB/c nude mouse assessed as change in body weight at 25 to 50 uM, sc administered at 1 day interval for 9 days", "format": "organism-based", "settings": "in vivo, 216 h, dose 25-50 µM, time 9 day"}, "HepG2 [16]": {"system": "HepG2", "assay": "Antitumor activity against human HepG2 cells xenografted in BALB/c nude mouse assessed as appearance of fuzzy boundary region at 25 to 50 uM, sc administered at 1 day interval for 9 days and measured on day 11 by H and E staining based histological analysis", "format": "functional, organism-based", "settings": "dose 25-50 µM, time 11.0 day"}, "HepG2 [17]": {"system": "HepG2", "assay": "Antitumor activity against human HepG2 cells xenografted in BALB/c nude mouse assessed as missing nuclei at 25 to 50 uM, sc administered at 1 day interval for 9 days and measured on day 11 by H and E staining based histological analysis", "format": "functional, organism-based", "settings": "dose 25-50 µM, time 11.0 day"}, "HepG2 [18]": {"system": "HepG2", "assay": "Antitumor activity against human HepG2 cells xenografted in BALB/c nude mouse assessed as induction of apoptosis at 25 to 50 uM, sc administered at 1 day interval for 9 days and measured on day 11 by TUNEL staining based assay", "format": "functional, organism-based", "settings": "dose 25-50 µM, time 11.0 day"}, "HepG2 [19]": {"system": "HepG2", "assay": "Induction of apoptosis in human HepG2 cells assessed as reduction in viable cells at 15 uM measured after 24 hrs by Annexin V-FITC/propidium iodide staining based flow cytometry", "format": "functional, cell-based"}, "A549 [20]": {"system": "A549", "assay": "Induction of apoptosis in human A549 cells assessed as reduction in viable cells at 15 uM measured after 24 hrs by Annexin V-FITC/propidium iodide staining based flow cytometry", "format": "functional, cell-based"}},
  "note": "Active and inactive are the calls of the source. The calls are words filed in the database; no cut-off is given here. Bridge positions count the residues as written; N and C are the ends. Peptide text beside a SMILES is read from it. I, II: the chains in the order shown.",
  "data": [
    {"molecule": "CC(C)C[C@H](NC(=O)[C@H](CCCCN)NC(=O)CNC(=O)[C@H](CC(C)C)NC(=O)[C@@H](NC(=O)[C@@H](NC(=O)[C@H](CC(C)C)NC(=O)[C@H](CCC(=O)O)NC(=O)[C@@H](N)Cc1c[nH]c2ccccc12)C(C)C)C(C)C)C(=O)N[C@@H](Cc1ccc(O)cc1)C(=O)NCC(=O)N[C@@H](CCCNC(=N)N)C(=O)N[C@@H](CCCCN)C(=O)N[C@@H](CCCCN)C(=O)N[C@@H](CCCNC(=N)N)C(=O)N[C@@H](CCCNC(=N)N)C(=O)N[C@@H](CCC(N)=O)C(=O)N[C@@H](CCCNC(=N)N)C(=O)N[C@@H](CCCNC(=N)N)C(=O)N[C@@H](CCCNC(=N)N)C(=O)O", "note": "(H-WELVVLGKLYGRKKRRQRRR-OH)", "values": [
      {"measurement": "Activity", "setting": "HepG2 [1]; DDE = dose-dependent effect", "value": "Dde"},
      {"measurement": "IC50", "setting": "HepG2 [1]", "value": 31.2, "unit": "µM"},
      {"measurement": "IC50 at 24 h", "setting": "[2]", "value": 63.9, "unit": "µM"},
      {"measurement": "IC50", "setting": "A549 [3]", "value": 30.9, "unit": "µM"},
      {"measurement": "Activity", "setting": "A549 [3]; DDE = dose-dependent effect", "value": "Dde"},
      {"measurement": "IC50 at 24 h", "setting": "[4]", "value": 32.9, "unit": "µM"},
      {"measurement": "Activity", "setting": "HepG2 [5]", "value": "Active"},
      {"measurement": "Activity", "setting": "HepG2 [6]", "value": "Active"},
      {"measurement": "Activity", "setting": "HepG2 [7]", "value": "Active"},
      {"measurement": "Activity", "setting": "HepG2 [8]", "value": "Active"},
      {"measurement": "Activity", "setting": "A549 [9]", "value": "Active"},
      {"measurement": "Activity", "setting": "A549 [10]", "value": "Active"},
      {"measurement": "Activity", "setting": "L02", "value": "Non-Toxic"},
      {"measurement": "Activity", "setting": "BEAS-2B", "value": "Non-Toxic"},
      {"measurement": "Activity", "setting": "A549 [11]", "value": "Active"},
      {"measurement": "Activity", "setting": "HepG2 [12]", "value": "Active"},
      {"measurement": "TGI", "setting": "HepG2 [13]", "value": "Dde"},
      {"measurement": "Activity", "setting": "HepG2 [14]", "value": "Active"},
      {"measurement": "Activity", "setting": "[15]", "value": "Non-Toxic"},
      {"measurement": "Activity", "setting": "HepG2 [16]", "value": "Active"},
      {"measurement": "Activity", "setting": "HepG2 [17]", "value": "Active"},
      {"measurement": "Activity", "setting": "HepG2 [18]", "value": "Active"}
    ]},
    {"molecule": "CC[C@H](C)[C@H](NC(=O)[C@H](CCCCN)NC(=O)[C@H](CC(N)=O)NC(=O)[C@H](CCCNC(=N)N)NC(=O)[C@H](Cc1ccccc1)NC(=O)[C@H](CCCCN)NC(=O)[C@H](CCCNC(=N)N)NC(=O)[C@H](CC(C)C)NC(=O)[C@H](CCCNC(=N)N)NC(=O)[C@H](CCCCNC(=O)[C@H](CCCCN)NC(=O)[C@H](CCC(=O)O)NC(=O)[C@H](CCCCN)NC(=O)[C@@H](NC(=O)[C@H](CCCCN)NC(=O)[C@H](CC(N)=O)NC(=O)[C@H](CCCNC(=N)N)NC(=O)[C@H](Cc1ccccc1)NC(=O)[C@H](CCCCN)NC(=O)[C@H](CCCNC(=N)N)NC(=O)[C@H](CC(C)C)NC(=O)[C@H](CCCNC(=N)N)NC(=O)[C@H](CCCCN)NC(=O)[C@H](CCCNC(=N)N)NC(=O)[C@H](CC(C)C)NC(=O)CN)[C@@H](C)CC)NC(=O)[C@H](CCCNC(=N)N)NC(=O)[C@H](CC(C)C)NC(=O)CN)C(=O)N[C@@H](CCCCN)C(=O)N[C@@H](CCC(=O)O)C(=O)N[C@@H](CCCCN)C(=O)O", "note": "(I: H-GLRKRLRKFRNKIKEK / II: H-GLRKRLRKFRNKIKEK-OH; amide I:C-II:4)", "values": [
      {"measurement": "IC50", "setting": "HepG2 [1]", "value": 34.8, "unit": "µM"},
      {"measurement": "IC50 at 24 h", "setting": "[2]", "value": 70.7, "unit": "µM"},
      {"measurement": "IC50", "setting": "A549 [3]", "value": 56.2, "unit": "µM"},
      {"measurement": "IC50 at 24 h", "setting": "[4]", "value": 93.6, "unit": "µM"},
      {"measurement": "Activity", "setting": "HepG2 [19]", "value": "Active"},
      {"measurement": "Activity", "setting": "A549 [20]", "value": "Active"},
      {"measurement": "Activity", "setting": "L02", "value": "Non-Toxic"},
      {"measurement": "Activity", "setting": "BEAS-2B", "value": "Non-Toxic"},
      {"measurement": "Activity", "setting": "A549 [11]", "value": "Active"},
      {"measurement": "Activity", "setting": "HepG2 [12]", "value": "Active"}
    ]}
  ]
}
